Measurements: patent US20180024136A1, “Development of ABCG2-Sensitive Fluorescent Probe For Isolation of ABCG2low Neural Stem/Progenitor Cells” (National University of Singapore, priority 2015, published 2018)

Experiments:
NS-5 cells = experiment: CDg13 staining of NS5 cells under STF31, ionomycin or Ko143; format: cell-based, mouse; conditions: STF31 2 μM, ionomycin 0.1 μM, Ko143 0.5 μM
Procedure: FIGS. 7A-7C show CDg13 stains depending on Abcg2 activity: (A) CDg13 (1 μM) were stained for 1 hour in live (A-1) or dead cells treated with 4% PFA (A-2) (representative image of three independent experiments, and (B) and (C) NS5 cells were treated STF31 (2 μM), ionomycin (0.1 μM) or Ko143 (0.5 μM) with treatment of CDg13 and Hoechst33342 under normal media (control had same amount of DMSO (0.2%) with other drugs treated group), staining intensity is shown by epifluorescence microscopy (B) or flow cytometry (C) (bar: 50 μm).
(§1) Flow cytometry was performed using Attune Cytometer (Invitrogen). Hoechest33342 (2 μM) and CDg13 (1 μM) are incubated with culture media for 1 hours and detached as single cells. The collected cells were suspended in BSA- and FBS-free DMEM to prevent loss of CDg13 signal. The average fluorescence intensity of total cells in each experimental group was analyzed by Attune cytometer software for quantification study.

differentiated NS5 cells = experiment: CDg13 staining of differentiated NS5 cells under ABC transporter inhibitors (flow cytometry); format: cell-based, mouse; conditions: inhibitor during staining
Procedure: as §1

human KB3-1 cells = experiment: MTS viability assay on KB3-1 cells; format: cell-based; conditions: 48 h
ABCB1 = ABCB1 (Homo sapiens, UniProt P08183); experiment: Probe fluorescence in HCT-15 cells under verapamil; conditions: HCT-15, 10 to 10,000 nM verapamil
ABCG2 = target: T1, ABCG2 (Homo sapiens, UniProt Q9UNQ0); experiment: Probe fluorescence in ABCG2/KB3-1 cells under Ko143; conditions: ABCG2/KB3-1, 10 to 1,000 nM Ko143
T1 sequence (Q9UNQ0 1-655): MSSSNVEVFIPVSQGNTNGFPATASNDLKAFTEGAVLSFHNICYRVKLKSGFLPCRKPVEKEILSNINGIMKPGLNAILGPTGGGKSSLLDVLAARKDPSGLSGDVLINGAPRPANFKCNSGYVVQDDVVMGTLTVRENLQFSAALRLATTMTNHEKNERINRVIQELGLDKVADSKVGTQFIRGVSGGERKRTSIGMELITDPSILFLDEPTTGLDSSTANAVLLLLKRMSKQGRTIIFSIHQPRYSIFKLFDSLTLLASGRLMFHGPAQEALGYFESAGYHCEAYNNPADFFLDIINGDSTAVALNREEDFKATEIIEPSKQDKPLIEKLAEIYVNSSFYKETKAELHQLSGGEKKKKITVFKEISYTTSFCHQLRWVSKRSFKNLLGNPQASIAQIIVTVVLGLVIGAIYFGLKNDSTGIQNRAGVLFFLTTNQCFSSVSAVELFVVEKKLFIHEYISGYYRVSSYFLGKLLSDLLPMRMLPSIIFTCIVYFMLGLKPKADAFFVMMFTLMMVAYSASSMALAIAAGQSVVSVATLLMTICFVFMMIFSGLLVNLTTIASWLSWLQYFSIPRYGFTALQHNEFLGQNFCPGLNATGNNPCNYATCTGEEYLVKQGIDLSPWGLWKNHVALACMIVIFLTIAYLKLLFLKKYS

Chain of ABCB1 (P08183 whole entry): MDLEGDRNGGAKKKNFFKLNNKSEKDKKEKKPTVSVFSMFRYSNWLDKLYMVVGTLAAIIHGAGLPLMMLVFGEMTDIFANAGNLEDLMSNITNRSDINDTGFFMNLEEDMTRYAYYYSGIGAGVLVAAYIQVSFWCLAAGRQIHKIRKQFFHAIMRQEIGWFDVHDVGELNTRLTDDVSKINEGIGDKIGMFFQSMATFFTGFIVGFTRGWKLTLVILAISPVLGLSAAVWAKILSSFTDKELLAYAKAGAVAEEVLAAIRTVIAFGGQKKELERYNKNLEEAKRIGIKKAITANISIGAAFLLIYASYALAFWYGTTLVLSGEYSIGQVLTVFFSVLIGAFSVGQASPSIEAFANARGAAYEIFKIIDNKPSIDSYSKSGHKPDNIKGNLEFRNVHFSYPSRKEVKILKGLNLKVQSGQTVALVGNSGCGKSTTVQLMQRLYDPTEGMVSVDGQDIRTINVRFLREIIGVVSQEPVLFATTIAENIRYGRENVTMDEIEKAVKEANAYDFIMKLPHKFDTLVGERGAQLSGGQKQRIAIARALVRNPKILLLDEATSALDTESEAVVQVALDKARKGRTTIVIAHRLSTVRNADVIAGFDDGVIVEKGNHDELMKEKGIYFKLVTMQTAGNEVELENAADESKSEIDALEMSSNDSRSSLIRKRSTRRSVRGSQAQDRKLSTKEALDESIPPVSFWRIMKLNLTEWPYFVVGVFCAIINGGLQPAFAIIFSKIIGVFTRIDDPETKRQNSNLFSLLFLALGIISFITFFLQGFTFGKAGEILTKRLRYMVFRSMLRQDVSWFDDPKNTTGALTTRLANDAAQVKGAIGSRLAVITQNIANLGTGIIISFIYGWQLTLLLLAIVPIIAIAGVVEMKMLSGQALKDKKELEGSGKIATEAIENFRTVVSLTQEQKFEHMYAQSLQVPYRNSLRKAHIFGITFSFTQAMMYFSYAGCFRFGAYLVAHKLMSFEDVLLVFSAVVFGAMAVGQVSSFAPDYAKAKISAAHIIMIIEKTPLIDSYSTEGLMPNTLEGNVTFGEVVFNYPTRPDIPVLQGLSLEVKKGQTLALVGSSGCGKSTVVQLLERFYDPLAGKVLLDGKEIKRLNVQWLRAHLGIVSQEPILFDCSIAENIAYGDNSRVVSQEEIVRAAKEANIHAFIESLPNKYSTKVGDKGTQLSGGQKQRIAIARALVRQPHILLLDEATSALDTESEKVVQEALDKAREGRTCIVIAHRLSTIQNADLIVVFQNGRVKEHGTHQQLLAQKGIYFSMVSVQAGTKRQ

COc1ccc2c3c([nH]c2c1)[C@H](CC(C)C)N1C(=O)[C@H](CCC(=O)OC(C)(C)C)NC(=O)[C@@H]1C3 [Ko143]
effect on CDg13 staining (NS-5 cells): stained CDg13 more strongly than normal NS-5 cells
staining of CDg13 versus DMSO control (differentiated NS5 cells): around 2.5 fold

CN(C)C(=O)CCSC(SCCC(=O)O)c1cccc(/C=C/c2ccc3ccc(Cl)cc3n2)c1 (stereo not drawn) [MK571]
staining of CDg13 versus DMSO control (differentiated NS5 cells): ~1.5 fold

COc1cc2c(cc1OC)CN(CCc1ccc(NC(=O)c3cccc4c(=O)c5cccc(OC)c5[nH]c34)cc1)CC2 [Elacridar, elacridar]
staining of CDg13 versus DMSO control (differentiated NS5 cells): around 2.5 fold

CCOc1ccc(-c2nc3ccc(-c4nc5ccc(N6CCN(C)CC6)cc5[nH]4)cc3[nH]2)cc1 [Hoechst 33342]
death rate (human KB3-1 cells; 1 μM): 25%
cell death (human KB3-1 cells; 10 μM): 100%
fold change of staining (ABCB1): up to 1.5 fold
fold change in fluorescence intensity (ABCG2): up to 1.3 fold

COc1ccc(CCN(C)CCCC(C#N)(c2ccc(OC)c(OC)c2)C(C)C)cc1OC (stereo not drawn) [verapamil]
staining of CDg13 versus DMSO control (differentiated NS5 cells): no effect of probe staining

CCCN(CCC)S(=O)(=O)c1ccc(C(=O)O)cc1 [probenecid]
staining of CDg13 versus DMSO control (differentiated NS5 cells): no effect of probe staining

Rhodamine123
fold change of staining (ABCB1): up to 4.0 fold
fold change in fluorescence intensity (ABCG2): did not increase
